target: T1, Mlp37p (periplasmic fragment of Mlp37) (Vibrio cholerae, UniProt A0A0H3AES3); assay: biochemical
T1 construct: gene VC0395_0316
T1 sequence (A0A0H3AES3 58-303 limits assumed): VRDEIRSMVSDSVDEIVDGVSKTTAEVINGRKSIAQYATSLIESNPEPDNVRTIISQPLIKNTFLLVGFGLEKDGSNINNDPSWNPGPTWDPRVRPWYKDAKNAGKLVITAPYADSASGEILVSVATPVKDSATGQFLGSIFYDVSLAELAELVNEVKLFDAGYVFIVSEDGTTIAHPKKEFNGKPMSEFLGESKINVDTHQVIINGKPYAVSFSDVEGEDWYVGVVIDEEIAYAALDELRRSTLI

**Q.** How did the Kd turn out when `C[C@H](N)C(=O)O` [L-alanine] was run?
**A.** 2.7 µM

**Q.** Which Kd does the source give for `N=C(N)NCCC[C@H](N)C(=O)O` [L-arginine] here?
**A.** 5.6 µM

**Q.** With `N[C@@H](CO)C(=O)O` [L-serine] as the compound, how does the Kd read?
**A.** 3.6 µM

**Q.** How did the Kd turn out when `NCCS(=O)(=O)O` [taurine, 2-aminoethanesulfonic acid] was run?
**A.** 3.2 µM

From PMC4754685 (Scientific Reports, 2016)
